Columns and labels:
Assay type in all cases: cell-based, human
[1] = tested on: MM1s multiple myeloma cell line; experiment: Macrophage phagocytosis assay, MM1s tumor cells pre-cultured with proteasome inhibitor (FIGS. 1A, 2A)
Method: (§1) FIGS. 1A and 1B show results when the multiple myeloma cell lines MM1s and H929 are cultured in the presence of the proteasome inhibitor bortezomib (at either 1, 5 or 10 nM) for 48 hours. The 0 result represents phagocytosis of cells that were not treated with bortezomib. Cells are then washed; macrophages and SIRPαFc (at 1, 5 or 100 nM) or Control Fc are added and the mixture is then subjected to the phagocytosis assay described herein.
(§2) FIGS. 2A and 2B show results from an experiment in which bortezomib is replaced by the proteasome inhibitor carfilzomib, which is then investigated as described in FIGS. 1A-1B. The 0 result represents phagocytosis of cells that were not treated with carfilzomib.
(§3) To generate the results represented in FIGS. 1A-1B and 2A-2B, heparinized whole blood was obtained from normal healthy human donors (Biological Specialty Corporation) and informed consent was obtained from all donors. Peripheral blood mononuclear cells (PBMCs) were isolated over Ficoll-Paque Plus density gradient (GE Healthcare) and CD14+ monocytes were isolated from PBMCs by positive selection using CD14 antibody-coated MicroBead separation (Miltenyi Biotec). […] Phagocytosis was assessed as % VPD450+ cells of live, single CD14+CD11b+macrophages by flow cytometry. […]

[2] = tested on: H929 multiple myeloma cell line; experiment: Macrophage phagocytosis assay, H929 tumor cells pre-cultured with proteasome inhibitor (FIGS. 1B, 2B)
Method: as §1, §2, §3

[3] = tested on: SU-DHL-6 diffuse large cell lymphoma (DLBCL) cell line; experiment: Macrophage phagocytosis assay, SU-DHL-6 tumor cells pre-cultured with proteasome inhibitor (FIGS. 3A-3F); conditions: SU-DHL-6 cultured 48 hours in bortezomib (10 nM), carfilzomib (10 nM) or ixazomib (25 nM); CD47 blockade drug at 100 nM, 2 hours co-culture; untreated vs proteasome inhibitor treated tumor cells, unpaired t-test
Method: (§4) FIGS. 3A-3F show the effect of proteasome inhibition on phagocytosis mediated by CD47 blockade, from an experiment supplemental to that represented in FIGS. 1A-1B and 2A-2B. The diffuse large cell lymphoma (DLBCL) cell line SU-DHL-6 and the multiple myeloma (MM) cell line MM1.S were cultured in the presence or absence of the proteasome inhibitors bortezomib (10 nM), carfilzomib (10 nM) or ixazomib (25 nM) for 48 hours. Cells were thereafter washed; macrophages and SIRPαFc proteins, CD47 monoclonal antibody (CD47 mAb) or Control Fc (at 100 nM) were added, and the mixture was then subjected to the phagocytosis assay as described infra.
(§5) To generate the results represented in FIGS. 3A-3F, macrophages were prepared from human peripheral blood mononuclear cells (PBMCs) obtained from healthy donors (BioreclamationIVT); informed consent was obtained from all donors. CD14+ monocytes were isolated by positive selection using the EasySep® human monocyte isolation kit (Stemcell Technologies). Monocytes were differentiated into macrophages by culturing the cells in X-VIVO 15 media (Lonza) supplemented with human m-CSF (PeproTech) for 10 days. Macrophages were primed with human IFNγ (PeproTech) one day prior to the phagocytosis assay. 48 hours prior to the phagocytosis assay, bortezomib (10 nM), carfilzomib (10 nM) or ixazomib (25 nM) were added to tumor cells. On the day of the phagocytosis assay, tumor cells (MM1.S or SU-DHL-6) were labeled with Violet Proliferation Dye 450 (BD Biosciences) and cultured with IFNγ-primed macrophages. Macrophages and tumor cells were co-cultured for 2 hours in the presence of 100 nM SIRPαFc (V region of human SIRPα variant 2 fused with IgG1 Fc), SIRPαFc (V region of human SIRPα variant 2 fused with IgG4 Fc), vSIRPαFc (high affinity CV1 variant of V region of human SIRPα fused with mutated IgG4) [SEQ ID No. 12], CD47 monoclonal antibody B6H12 [SEQ ID Nos. 13 and 14] or Control Fc (wild type human IgG4 with stabilized hinge). Cells were subsequently stained with a viability dye, APC-conjugated anti-human CD14 (61D3, eBioscience), and PE-conjugated anti-human CD11b (ICRF44, eBioscience). Macrophages were identified as live, single, CD14+CD11b+ cells. Doublets were excluded by SSC-W and SSC-H discrimination. Percent phagocytosis was assessed as the percent of macrophages that were VPD450+. Unpaired t-tests comparing the percentage of phagocytosis of untreated vs proteasome inhibitor treated tumor cells were performed (*P≤0.05, **P≤0.01, ***P≤0.001).

[4] = tested on: MM1.S multiple myeloma (MM) cell line; experiment: Macrophage phagocytosis assay, MM1.S tumor cells pre-cultured with proteasome inhibitor (FIGS. 3A-3F); conditions: MM1.S cultured 48 hours in bortezomib (10 nM), carfilzomib (10 nM) or ixazomib (25 nM); CD47 blockade drug at 100 nM, 2 hours co-culture; untreated vs proteasome inhibitor treated tumor cells, unpaired t-test
Method: as §4, §5

Molecule: CC(C)C[C@H](NC(=O)[C@H](Cc1ccccc1)NC(=O)c1cnccn1)B(O)O [bortezomib]
- SIRPαFc-mediated phagocytosis (% VPD450+ of live, single CD14+CD11b+ macrophages) ([1]; MM1s cultured in bortezomib (1, 5 or 10 nM) for 48 hours, then macrophages and SIRPαFc (1, 5 or 100 nM), versus cells not treated with bortezomib): increased SIRPαFc-mediated phagocytosis
- SIRPαFc-mediated phagocytosis (% VPD450+ of live, single CD14+CD11b+ macrophages) ([2]; H929 cultured in bortezomib (1, 5 or 10 nM) for 48 hours, then macrophages and SIRPαFc (1, 5 or 100 nM), versus cells not treated with bortezomib): increased SIRPαFc-mediated phagocytosis
- Percent phagocytosis mediated by CD47 blockade (percent of macrophages VPD450+) [3]: significantly increased SIRPαFc-mediated phagocytosis or CD47 mAb-mediated phagocytosis
- Percent phagocytosis mediated by CD47 blockade (percent of macrophages VPD450+) [4]: significantly increased SIRPαFc-mediated phagocytosis or CD47 mAb-mediated phagocytosis

Molecule: CC(C)C[C@H](NC(=O)[C@H](CCc1ccccc1)NC(=O)CN1CCOCC1)C(=O)N[C@@H](Cc1ccccc1)C(=O)N[C@@H](CC(C)C)C(=O)[C@@]1(C)CO1 [carfilzomib]
- SIRPαFc-mediated phagocytosis (% VPD450+ of live, single CD14+CD11b+ macrophages) ([1]; MM1s cultured in 10 nM carfilzomib for 48 hours, at all concentrations of SIRPαFc tested (1, 5 or 100 nM), versus cells not treated with carfilzomib): significant increase in SIRPαFc-mediated phagocytosis
- SIRPαFc-mediated phagocytosis (% VPD450+ of live, single CD14+CD11b+ macrophages) ([2]; H929 cultured in 10 nM carfilzomib for 48 hours, at all concentrations of SIRPαFc tested (1, 5 or 100 nM), versus cells not treated with carfilzomib): significant increase in SIRPαFc-mediated phagocytosis
- Percent phagocytosis mediated by CD47 blockade (percent of macrophages VPD450+) [3]: significantly increased SIRPαFc-mediated phagocytosis or CD47 mAb-mediated phagocytosis
- Percent phagocytosis mediated by CD47 blockade (percent of macrophages VPD450+) [4]: significantly increased SIRPαFc-mediated phagocytosis or CD47 mAb-mediated phagocytosis

Molecule: CC(C)C[C@H](NC(=O)CNC(=O)c1cc(Cl)ccc1Cl)B(O)O [ixazomib]
- Percent phagocytosis mediated by CD47 blockade (percent of macrophages VPD450+) [3]: significantly increased SIRPαFc-mediated phagocytosis or CD47 mAb-mediated phagocytosis
- Percent phagocytosis mediated by CD47 blockade (percent of macrophages VPD450+) [4]: significantly increased SIRPαFc-mediated phagocytosis or CD47 mAb-mediated phagocytosis

Molecule: SIRPαFc (V region of human SIRPα variant 2 fused with IgG4 Fc): V region of human SIRPα variant 2 fused with IgG4 Fc
- Percent phagocytosis mediated by CD47 blockade (percent of macrophages VPD450+) [3]: significant increase in phagocytosis
- Percent phagocytosis mediated by CD47 blockade (percent of macrophages VPD450+) [4]: significant increase in phagocytosis

B1: vSIRPαFc: high affinity CV1 variant of V region of human SIRPα fused with mutated IgG4, SEQ ID No. 12 (protein, listed as Homo sapiens)
chain: EEELQIIQPDKSVSVAAGESAILHCTITSLFPVGPIQWFRGAGPARVLIYNQRQGPFPRVTTVSETTKRENMDFSISISNITPADAGTYYCIKFRKGSPDTEFKSGAGTELSVRAKPSESKYGPPCPPCPAPPVAGPSVFLFPPKPKDTLMISRTPEVTCVVVDVSQEDPEVQFNWYVDGVEVHNAKTKPREEQFNSTYRVVSVLTVLHQDWLNGKEYKCKVSNKGLPSSIEKTISKAKGQPREPQVYTLPPSQEEMTKNQVSLTCLVKGFYPSDIAVEWESNGQPENNYKTTPPVLDSDGSFFLYSRLTVDKSRWQEGNVFSCSVMHEALHNHYTQKSLSLSLGK
- Percent phagocytosis mediated by CD47 blockade (percent of macrophages VPD450+) [3]: significant increase in phagocytosis
- Percent phagocytosis mediated by CD47 blockade (percent of macrophages VPD450+) [4]: significant increase in phagocytosis

B2: CD47 mAb: CD47 monoclonal antibody B6H12, variable regions SEQ ID Nos. 13 and 14 (antibody, V domains shown)
VH: EVQLVESGGDLVKPGGSLKLSCAASGFTFSGYGMSWVRQTPDKRLEWVATITSGGTYTYYPDSVKGRFTISRDNAKNTLYLQIDSLKSEDTAIYFCARSLAGNAMDYWGQGTSVTVSS
VL: DIVMTQSPATLSVTPGDRVSLSCRASQTISDYLHWYQQKSHESPRLLIKFASQSISGIPSRFSGSGSGSDFTLSINSVEPEDVGVYYCQNGHGFPRTFGGGTKLEIK
modifications: Murine
- Percent phagocytosis mediated by CD47 blockade (percent of macrophages VPD450+) [3]: significant increase in phagocytosis
- Percent phagocytosis mediated by CD47 blockade (percent of macrophages VPD450+) [4]: significant increase in phagocytosis

Reference: US11446315B2, “Enhancement of CD47 blockade therapy by proteasome inhibitors” (PF Argentum IP Holdings LLC, priority 2016, dated 2022)
